Test results as given in US7253285B2, “Thiazolinone 4-monosubstituted quinolines” (Hoffmann-La Roche Inc., priority 2004, dated 2007).
Structures can show the parent of a compound that is named as a salt.

Target: T1, recombinant human CDK1/Cyclin B complex (Homo sapiens, UniProt P06493)
T1 construct: made in house; host or cells: High Five insect cells (baculovirus) for CDK1/GST-cyclin B; E. coli M15 for the Rb substrate
Assay: CDK1/Cyclin B kinase assay (FlashPlate or HTRF)
Assay type: biochemical
Conditions: Rb protein substrate, Ki=IC50/(1+[S]/Km)
Method: To determine inhibition of CDK1 activity, either FlashPlate™ (NEN™-Life Science Products) assay or HTRF assay was performed. Both types of kinase assays were carried out using recombinant human CDK1/Cyclin B complex. GST-cyclinB (GST-cycB) and CDK1 cDNA clones in baculovirus vectors were provided by Dr. W. Harper at the Baylor College of Medicine, Houston, Tex. Proteins were co-expressed in High Five™ insect cells and the complex was purified on glutathione Sepharose resin (Pharmacia, Piscataway, N.J.) as previously described (Harper, J. W. et al. Cell 1993, 75, 805-816). A 6×-Histidine tagged truncated form of retinoblastoma (Rb) protein (amino acid 386-928) was used as the substrate for the CDK1/Cyclin B assay (the expression plasmid was provided by Dr. Veronica Sullivan, Department of Molecular Virology, Roche Research Centre, Welwyn Garden City, United Kingdom). The Rb protein is a natural substrate for phosphorylation by CDK1 (see Herwig and Strauss Eur. J. Biochem. Vol. 246 (1997) pp. 581-601 and the references cited therein). The expression of the 62 Kd protein was under the control of an IPTG inducible promoter in an M15 E. coli strain. Cells were lysed by sonication and purification was carried out by binding lysates at pH 8.0 to a Ni-chelated agarose column pretreated with 1 mM imidazole. The resin was then washed several times with incrementally decreasing pH buffers to pH 6.0, and eluted with 500 mM imidazole. Eluted protein was dialysed against 20 mM HEPES pH 7.5, 30% glycerol, 200 mM NaCl, and 1 mM DTT. Purified Rb fusion protein stocks were quantitated for protein concentration, aliquoted, and stored at −70° C.
For the FlashPlate kinase assay, 96-well FlashPlates were coated with Rb protein at 10 μg/ml, using 100 μl per well. Plates were incubated at 4° C. overnight or at room temperature for 3 hours on a shaker. To control for nonspecific phosphorylation, one row of wells was coated with 100 μl/well coating buffer (20 mM HEPES, 0.2 M NaCl). Plates were then washed twice with wash buffer (0.01% Tween 20 in phosphate-buffered saline). Compounds to be tested (“test compounds”) were added to the wells at 5× final concentration. Reactions were initiated by immediate addition of 40 μl reaction mix (25 mM HEPES, 20 mM MgCl2, 0.002% Tween 20, 2 mM DTT, 1 μM ATP, 4 nM ^33P-ATP) and a sufficient amount of enzyme to give counts that were at least 10-fold above background. Plates were incubated at room temperature on a shaker for 30 minutes. Plates were washed four times with the wash buffer, sealed, and counted on the TopCount scintillation counter (Packard Instrument Co., Downers Grove, Ill.]. The percent inhibition of Rb phosphorylation, which is a measure of the inhibition of CDK activity, was determined according to the following formula:
[formula] where “test compound” refers to the average counts per minute of the test duplicates, “nonspecific” refers to the average counts per minute when no CDK1/Cyclin B, etc., was added, and “total” refers to the average counts per minute when no compound was added. The IC50 value is the concentration of test compound that reduces by 50% the protein-kinase induced incorporation of the radiolabel under the test conditions described. The value of the inhibitor constant Ki is calculated by the following: Ki=IC50/(1+[S]/Km), where [S] is the ATP concentration and Km is Michaelis constant.
The Homogeneous Time Resolved Fluorescence (HTRF) kinase assay was carried out in 96-well polypropylene plates (BD Biosciences, Bedford, Mass.). Test compounds were first dissolved in DMSO, and then diluted in kinase assay buffer 1 (25 mM HEPES, pH7.0, 8 mM MgCl2, 1.5 mM DTT, and 162 μM ATP) with DMSO concentration at 15%. The CDK1/Cyclin B enzyme was diluted in kinase assay buffer 2 (25 mM HEPES, pH 7.0, 8 mM MgCl2, 0.003% Tween 20, 0.045% BSA, 1.5 mM DTT, and 0.338 μM Rb protein). […]

T1 sequence (P06493 whole entry): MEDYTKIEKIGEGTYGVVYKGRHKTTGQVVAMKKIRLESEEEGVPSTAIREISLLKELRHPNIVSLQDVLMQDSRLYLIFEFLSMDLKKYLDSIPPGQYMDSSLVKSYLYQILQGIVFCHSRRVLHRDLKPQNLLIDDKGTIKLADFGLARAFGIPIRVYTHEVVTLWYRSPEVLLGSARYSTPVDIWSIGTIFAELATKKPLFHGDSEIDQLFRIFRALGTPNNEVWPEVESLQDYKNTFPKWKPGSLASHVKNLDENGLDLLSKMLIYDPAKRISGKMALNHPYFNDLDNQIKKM
T1 sequence (P14635 whole entry partner): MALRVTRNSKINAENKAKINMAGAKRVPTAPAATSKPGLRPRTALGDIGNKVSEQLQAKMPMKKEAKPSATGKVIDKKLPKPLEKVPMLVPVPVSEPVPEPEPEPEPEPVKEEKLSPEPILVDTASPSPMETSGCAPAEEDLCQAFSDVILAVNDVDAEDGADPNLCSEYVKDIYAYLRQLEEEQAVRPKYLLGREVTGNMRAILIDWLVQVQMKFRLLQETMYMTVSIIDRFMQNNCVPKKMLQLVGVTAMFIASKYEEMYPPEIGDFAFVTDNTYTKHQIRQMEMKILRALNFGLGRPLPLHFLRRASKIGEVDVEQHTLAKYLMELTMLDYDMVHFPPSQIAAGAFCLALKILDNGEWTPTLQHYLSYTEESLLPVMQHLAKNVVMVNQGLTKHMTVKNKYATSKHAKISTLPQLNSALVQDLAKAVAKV

`CCSc1ccnc2ccc(/C=C3\SC(N[C@H]4C[C@@H]4c4ccccc4)=NC3=O)cc12` [Example 35, 5-(4-Ethylsulfanyl-quinolin-6-ylmeth-(Z)-ylidine)-2-((1R,2S)-2-phenyl-cyclopropylamino)-thiazol-4-one] and `CCOc1ccnc2ccc(/C=C3\SC(N[C@H]4C[C@@H]4c4ccccc4)=NC3=O)cc12` [Example 5, 5-(4-Ethoxy-quinolin-6-ylmeth-(Z)-ylidine)-2-((1R,2S)-2-phenyl-cyclopropylamino)-thiazol-4-one] are within 1.5-fold of each other in Ki: 37.2 nM for the first, 39 nM for the second.

Compared with `CCOc1ccnc2ccc(/C=C3\SC(NCCc4cccc(F)c4)=NC3=O)cc12` [Example 40], `CCOc1ccnc2ccc(/C=C3\SC(NCc4cnc(C)cn4)=NC3=O)cc12` [Example 30, 2-[(5-Methyl-pyrazin-2-ylmethyl)-amino]-5-(4-ethoxy-quinolin-6-ylmeth-(Z)-ylidine)-thiazol-4-one] is 22-fold higher in Ki: 13 nM for the first, 281 nM for the second. The first binds more tightly here.

Compared with `O=C1N=C(N[C@H]2C[C@@H]2c2ccccc2)S/C1=C\c1ccc2nccc(OCC3CCCCC3)c2c1` [Example 10, 5-(4-Cyclohexylmethoxy-quinolin-6-ylmeth-(Z)-ylidine)-2-((1R,2S)-2-phenyl-cyclopropylamino)-thiazol-4-one], `NC1=NC(=O)/C(=C/c2ccc3nccc(Oc4ccccc4)c3c2)S1` [Example 25, 2-Amino-5-(4-phenoxy-quinolin-6-ylmeth-(Z)-ylidine)-thiazol-4-one] is 3.5-fold lower in Ki: 1190 nM for the first, 340 nM for the second.

Going from `COCCOc1ccnc2ccc(/C=C3\SC(N)=NC3=O)cc12` [Example 20, 2-Amino-5-[4-(2-methoxy-ethoxy)-quinolin-6-ylmeth-(Z)-ylidine]-thiazol-4-one as trifluoroacetate salt] to `O=C1N=C(NCc2cccs2)S/C1=C\c1ccc2nccc(N3CCOCC3)c2c1` [Example 15, 5-(4-Morpholin-4-yl-quinolin-6-ylmeth-(Z)-ylidine)-2-[(thiophen-2-ylmethyl)-amino]-thiazol-4-one], the Ki rises from 32 nM to 210 nM (6.6-fold).

Tested on: not given
Assay: not given
Conditions: not given

Compared with `O=C1N=C(N[C@H]2C[C@@H]2c2ccccc2)S/C1=C\c1ccc2nccc(OCC3CCCCC3)c2c1` [Example 10, 5-(4-Cyclohexylmethoxy-quinolin-6-ylmeth-(Z)-ylidine)-2-((1R,2S)-2-phenyl-cyclopropylamino)-thiazol-4-one], `CCOc1ccnc2ccc(/C=C3\SC(N[C@H]4C[C@@H]4c4ccccc4)=NC3=O)cc12` [Example 5, 5-(4-Ethoxy-quinolin-6-ylmeth-(Z)-ylidine)-2-((1R,2S)-2-phenyl-cyclopropylamino)-thiazol-4-one] is higher in melting point: 223 to 227 °C for the first, 266 to 268 °C for the second.

First: COc1ccnc2ccc(/C=C3\SC(N[C@H]4C[C@@H]4c4ccccc4)=NC3=O)cc12 [Example 2, 5-(4-Methoxy-quinolin-6-ylmeth-(Z)-ylidine)-2-((1R,2S)-2-phenyl-cyclopropylamino)-thiazol-4-one]
Second: COc1ccnc2ccc(/C=C3\SC(NCc4cccs4)=NC3=O)cc12 [Example 1, 5-(4-Methoxy-quinolin-6-ylmeth-(Z)-ylidine)-2-[(thiophen-2-ylmethyl)-amino]-thiazol-4-one]
The melting point of the first is lower: 251 to 253 °C for the first, 258 to 262 °C for the second.

First: O=C1N=C(NCc2cccs2)S/C1=C\c1ccc2nccc(Oc3ccccc3)c2c1 [Example 24, 5-(4-Phenoxy-quinolin-6-ylmeth-(Z)-ylidine)-2-[(thiophen-2-ylmethyl)-amino]-thiazol-4-one]
Second: CCOc1ccnc2ccc(/C=C3\SC(NCc4cccs4)=NC3=O)cc12 [Example 4, 5-(4-Ethoxy-quinolin-6-ylmeth-(Z)-ylidine)-2-[(thiophen-2-ylmethyl)-amino]-thiazol-4-one]
The melting point of the first is higher: 239 to 240.5 °C for the first, 226 to 228 °C for the second.
